As a reminder, the Kd is a measure of binding affinity in units of concentration. Read a high Kd as weaker binding. Broadly, the EC50 is the concentration needed to bring the measured effect to its halfway point.

Three compounds from US20220252611A1 (priority 2019, published 2022) can be followed below.

Test [1] deals with alpha 2 adrenergic receptor. Nature of the test: Simultaneous MS binding assay, alpha 2 adrenergic receptor in rat cortex. Particulars: multiplexed with prazosine, FIG. 3A. On the procedure:
(§1) FIG. 3A is a graph showing a simultaneous binding experiment with alpha1 and alpha 2 beta-adrenoceptors. The target molecules are comprised in rat cortex, which contains both alpha 1 and alpha 2 beta adrenoceptors. The test compound is WB4101 and the ligands are prazosine and RX821002.
(§2) This example used target molecule comprising both alpha 1 and alpha 2 beta adeno receptors incubated with WB4101 (test compound) in the presence prazosine (ligand, or “marker” for alpha 1) and RX821002 (ligand, or “marker” for alpha 2) as shown in FIG. 3A. In FIG. 3B, yohimbine (test compound) was tested in the presence of in the presence prazosine (marker for alpha 1) and RX821002 (marker for alpha 2). The signals are indicated ns for non-specific.
(§3) Rat cortexes from Wistar male rats were harvested and transferred to 50 mM Tris-HCl (pH, 7.4) and homogenized by a polyton. […] The pellet was finally resuspended in a smaller volume of lyses buffer and the final protein concentration was determined according to the Bradford method using bovine serum albumin as a standard. […]
(§4) The filters were dried for one hour at 50° C. and cooled to room temperature before elution of ligands using a acetonitrile (contained 100 μM of antipyrine as an internal standard) via a vacuum manifold. Relative quantification of ligand in each sample was performed by UHPLC-MS-MS, the ratio area of ligand and internal standard was used. […]

In test [2] the test system is alpha 1 adrenergic receptor. Nature of the test: Simultaneous MS binding assay, alpha 1 adrenergic receptor in rat cortex. Particulars: multiplexed with RX821002, FIG. 3A. On the procedure: as §1, §2, §3, §4
For a further test, the target named is sodium channels. Kind of test: Radioligand binding assay of sodium (Na) channel. Particulars: rat cortex sodium channels; first value column of Table 4 (SNR 6), taken as radioligand binding.
Test [3] addresses sodium channel (Na+) site 2 receptor. Kind of test: MS binding assay of sodium channel, batrachotoxin as ligand, UHPLC-MS/MS. Particulars: rat cortex membrane 200 μg/well, 60 minutes at 37° C.; second value column of Table 4 (SNR 8), taken as MS binding.

As for `COC1(C2=NCCN2)COc2ccccc2O1` (stereo not shown) [RX821002], the “specific binding to alpha 2 adrenergic receptor” value in test [1] is “shown specifically to bind”.

For `COc1cc2nc(N3CCN(C(=O)c4ccco4)CC3)nc(N)c2cc1OC` [prazosine], the “specific binding to alpha 1 adrenergic receptor” value in test [2] was “shown specifically to bind”.

As for Batrachotoxin, the Kd on sodium channels is 91 nM. In test [3], this compound came in with a concentration giving a half-maximal response (EC50) of 143 nM.
